Literature values as cited in patent US10130658B2, “Method of ex vivo enhancement of immune cell activity for cancer immunotherapy with a small molecule ablative compound” (Provectus Pharmatech, Inc., priority 2015, dated 2018).

Assays:
[1] = test system: tumor cells
[2] = test system: Hela cells; settings: treated for 1 hour following photodynamic irradiation

## O=C1OC2(c3cc(I)c(O)c(I)c3Oc3c2cc(I)c(O)c3I)c2c(Cl)c(Cl)c(Cl)c(Cl)c21 [RB, 4,5,6,7-tetrachloro-2′,4′,5′,7′-tetraiodofluorescein]
[1]; accumulates in lysosomes of tumor cells
  time to autolyse tumor cells: 30 to 60 min
[1]; normal cells
  uptake into normal cells: excluded

## CC(=O)Oc1c(I)cc2c(c1I)Oc1c(cc(I)c(OC(C)=O)c1I)C21OC(=O)c2c(Cl)c(Cl)c(Cl)c(Cl)c21 [rose bengal acetate]
[2]
  HMGB1 release: passively released
